We go through 47 compounds from US11365192B2, “Pyridine compound substituted with azole” (TAISHO PHARMACEUTICAL CO., LTD., priority 2017, dated 2022).

The target in one assay is human CYP4F2 (Homo sapiens (Human), UniProt P78329). Nature of the assay: Inhibition test against 20-HETE producing enzyme CYP4F2 (luciferine derivative, luminescence). Type of assay: biochemical. An outline of the steps: (§1)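 E. coli membranes (100 μg/mL protein) expressing human enzyme, room temperature 60 min, luciferin-derivative luminescence; IC50 from % inhibition. CYP4F2: 50 mM KPO4 pH 7.4, 2.5 μM substrate, 1 mM NADPH. CYP4A11: 100 mM Tris-HCl pH 7.5, 60 μM substrate, NADP+/glucose 6-phosphate/G6PDH regenerating system, 3.3 mM MgCl2.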
Chain of human CYP4F2 (P78329 5-520): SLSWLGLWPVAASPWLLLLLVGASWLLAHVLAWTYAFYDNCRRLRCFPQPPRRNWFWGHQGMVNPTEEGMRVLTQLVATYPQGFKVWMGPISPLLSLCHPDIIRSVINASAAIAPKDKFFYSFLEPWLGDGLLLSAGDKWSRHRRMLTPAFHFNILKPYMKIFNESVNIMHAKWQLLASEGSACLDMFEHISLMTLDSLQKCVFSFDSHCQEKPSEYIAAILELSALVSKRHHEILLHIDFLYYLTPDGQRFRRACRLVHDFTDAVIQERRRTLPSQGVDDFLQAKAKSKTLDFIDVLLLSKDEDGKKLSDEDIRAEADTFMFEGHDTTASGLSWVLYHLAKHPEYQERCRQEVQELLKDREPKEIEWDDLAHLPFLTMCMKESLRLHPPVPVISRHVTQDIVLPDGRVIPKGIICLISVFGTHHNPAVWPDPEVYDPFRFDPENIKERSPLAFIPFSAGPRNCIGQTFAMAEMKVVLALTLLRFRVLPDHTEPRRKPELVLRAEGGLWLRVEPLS

The target of the next assay is human CYP4A11 (Homo sapiens (Human), UniProt Q02928). Description: Inhibition test against 20-HETE producing enzyme CYP4A11 (luciferine derivative, luminescence). Type of assay: biochemical. An outline of the steps: as §1
Chain of human CYP4A11 (Q02928 5-519): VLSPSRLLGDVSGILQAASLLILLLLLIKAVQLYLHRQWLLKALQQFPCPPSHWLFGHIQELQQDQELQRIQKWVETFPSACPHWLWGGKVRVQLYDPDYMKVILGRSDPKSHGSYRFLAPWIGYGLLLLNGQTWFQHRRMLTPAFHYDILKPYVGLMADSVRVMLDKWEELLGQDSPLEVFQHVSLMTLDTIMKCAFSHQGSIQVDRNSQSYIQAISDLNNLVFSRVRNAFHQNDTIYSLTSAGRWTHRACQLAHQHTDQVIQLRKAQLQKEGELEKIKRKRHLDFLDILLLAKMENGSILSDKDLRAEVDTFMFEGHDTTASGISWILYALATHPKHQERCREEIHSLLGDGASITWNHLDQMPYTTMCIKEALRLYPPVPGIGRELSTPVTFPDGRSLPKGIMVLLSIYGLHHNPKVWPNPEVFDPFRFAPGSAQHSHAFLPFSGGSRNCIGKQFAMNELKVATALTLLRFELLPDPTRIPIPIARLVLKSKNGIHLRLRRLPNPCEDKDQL
Setting [1] is: human CYP4F2, luciferine derivative, luminescence.
The mark [2] stands for this setting: human CYP4A11, luciferine derivative, luminescence.
The mark [3] stands for this setting: E. coli membrane fraction expressing human CYP4F2, 2.5 μM luciferine derivative, room temperature 60 minutes.
Setting [4] is: E. coli membrane fraction expressing human CYP4A11, 60 μM luciferine derivative, room temperature 60 minutes.

The structures appear in SMILES notation.

In general, IC50 refers to the point on the concentration scale where inhibition reaches its midpoint. On to `C[C@H](O)CNC(=O)CCc1cccc(COc2ccc(-c3ccn[nH]3)nc2)c1` [Example 43-9], for which the IC50 against human CYP4F2 (setting [1]) came to 73 nM; against human CYP4A11 (setting [2]), 130 nM.
Regarding `O=C(O)C1CCN(C(=O)c2cccc(COc3ccc(-c4ccn[nH]4)nc3)c2)C1` (stereo not shown) [Example 45-36], the results for the IC50 against human CYP4F2 (setting [1]) and at human CYP4A11 (setting [2]) were 1100 nM and 230 nM, respectively.
In the case of `O=C(O)C1(CCCCCCOc2ccc(-c3ccn[nH]3)nc2)CCS(=O)(=O)CC1` [Example 3-7], the IC50 at human CYP4F2 (setting [3]) stood at 5700 nM; against human CYP4A11 (setting [4]), 1600 nM.
Take `CC(C)(OCCCCCCCCOc1ccc(-c2ccn[nH]2)nc1)C(=O)O` [Example 72-1]: the figures for the IC50 against human CYP4F2 (setting [1]) and on human CYP4A11 (setting [2]) were 54 nM and 450 nM, respectively.
With `CC(=O)N1CCC(CCCCCCCCOc2ccc(-c3ccn[nH]3)nc2)(C(=O)O)CC1` [Example 6-1, 1-Acetyl-4-[8-[[6-(1H-pyrazol-5-yl)-3-pyridinyl]oxy]octyl]-4-piperidinecarboxylic Acid], the figures for the IC50 at human CYP4F2 (setting [3]) and against human CYP4A11 (setting [4]) were 7.9 nM and 770 nM, respectively.
For `O=C(O)CCCCCCCOc1ccc(-c2ccn[nH]2)nc1` [Example 1-48] the same measures were 2000 nM and 44 nM.
Regarding `O=C1NC(=O)C(CCCCOc2ccc(-c3ccn[nH]3)nc2)O1` (stereo not shown) [Example 63-1, 5-[4-[[6-(1H-Pyrazol-5-yl)-3-pyridinyl]oxy]butyl]oxazolidine-2,4-dione], the IC50 on human CYP4F2 (setting [3]) is 12000 nM; on human CYP4A11 (setting [4]), 31 nM.
Turning to `O=C(O)[C@H]1CCCN(C(=O)c2cccc(COc3ccc(-c4ccn[nH]4)nc3)c2)C1` [Example 45-29], the values for the IC50 against human CYP4F2 (setting [1]) and at human CYP4A11 (setting [2]) were 4900 nM and 170 nM, respectively.
As for `O=C(O)c1cnc(-c2cccc(COc3ccc(-c4ccn[nH]4)nc3)c2)cn1` [Example 18-4], the IC50 was found to be 490 nM on human CYP4F2 (setting [3]) and 22 nM against human CYP4A11 (setting [4]).
Regarding `O=C(O)[C@H]1CCc2cc(CCOc3ccc(-c4ccn[nH]4)nc3)ccc2O1` [Example 71-8-2], the half-maximal inhibitory concentration (IC50) against human CYP4F2 (setting [1]) worked out at 560 nM; against human CYP4A11 (setting [2]) it was 48 nM.
For `CC(C)(CCNC(=O)c1cccc(COc2ccc(-c3ccn[nH]3)nc2)c1)C(=O)O` [Example 45-14] the same measures were 410 nM and 51 nM.
`COc1cc(COc2ccc(-c3ccn[nH]3)nc2)ccc1C(=O)O` [Example 22-17, 2-Methoxy-4-[[6-(1H-pyrazol-5-yl)-3-pyridinyl]oxymethyl]benzoic Acid]: the IC50 against human CYP4F2 (setting [3]) is 19000 nM; against human CYP4A11 (setting [4]), 62 nM.
Consider `CN(CCO)C(=O)CCc1cccc(COc2ccc(-c3ccn[nH]3)nc2)c1` [Example 43-3], for which the IC50 at human CYP4F2 (setting [1]) is 170 nM; on human CYP4A11 (setting [2]), 310 nM.
On to `CC[C@@H](OCCCCCCCOc1ccc(-c2ccn[nH]2)nc1)C(=O)O` [Example 71-2-1], for which the values for the 50% inhibitory concentration (IC50) on human CYP4F2 (setting [1]) and on human CYP4A11 (setting [2]) were 300 nM and 170 nM, respectively.
`CC(C)(C(=O)O)C(=O)N1CCc2ccc(COc3ccc(-c4ccn[nH]4)nc3)cc2C1` [Example 17-1, 2,2-Dimethyl-3-oxo-3-[7-[[6-(1H-pyrazol-5-yl)-3-pyridinyl]oxymethyl]-3,4-dihydro-1H-isoquinolin-2-yl]propanoic Acid]: the IC50 against human CYP4F2 (setting [3]) came out at 180 nM; against human CYP4A11 (setting [4]), 1400 nM.
`CC(C)(NS(=O)(=O)c1cccc(COc2ccc(-c3ccn[nH]3)nc2)c1)C(=O)O` [Example 75-1]: the figures for the IC50 on human CYP4F2 (setting [1]) and on human CYP4A11 (setting [2]) were 9300 nM and 21 nM, respectively.
In the same order, the values of `CC(C)(Oc1ccc(CCOc2ccc(-c3ccn[nH]3)nc2)cc1)C(=O)O` [Example 71-30] are 11000 nM and 1900 nM.
For `OC(c1ccc(COc2ccc(-c3ccn[nH]3)nc2)cc1)C(F)F` (stereo not shown) [Example 59-2, 2,2-Difluoro-1-[4-[[6-(1H-pyrazol-5-yl)-3-pyridinyl]oxymethyl]phenyl]ethanol], the IC50 on human CYP4F2 (setting [3]) is 100 nM; against human CYP4A11 (setting [4]), 1800 nM.
As to `O=C(O)COc1cccc(COc2ccc(-c3ccn[nH]3)nc2)c1` [Example 10-2, 2-[3-[[6-(1H-Pyrazol-5-yl)-3-pyridinyl]oxymethyl]phenoxy]acetic Acid], the IC50 was found to be 1100 nM against human CYP4F2 (setting [3]) and 23 nM at human CYP4A11 (setting [4]).
Regarding `O=C(O)C1COc2ccc(CCOc3ccc(-c4ccn[nH]4)nc3)cc2C1` (stereo not shown) [Example 71-10], the IC50 at human CYP4F2 (setting [1]) came out at 260 nM; against human CYP4A11 (setting [2]) it was 140 nM.
Turning to `Oc1cccc(CCCOc2ccc(-c3ccn[nH]3)nc2)c1` [Example 11-2], the IC50 against human CYP4F2 (setting [3]) worked out at 19 nM; against human CYP4A11 (setting [4]), 520 nM.
Turning to `O=C(O)C1(c2cccc(COc3ccc(-c4ccn[nH]4)nc3)c2)CCOCC1` [Example 33-2, 4-[3-[[6-(1H-Pyrazol-5-yl)-3-pyridinyl]oxymethyl]phenyl]-4-oxanecarboxylic Acid], the IC50 against human CYP4F2 (setting [3]) was 14000 nM; against human CYP4A11 (setting [4]), 130 nM.
As for `CS(=O)(=O)NC(=O)Cc1cccc(COc2ccc(-c3ccn[nH]3)nc2)c1` [Example 44-3], the values for the IC50 against human CYP4F2 (setting [1]) and against human CYP4A11 (setting [2]) were 11000 nM and 44 nM, respectively.
With `O=C(O)CCCCOc1ccc(-c2ccn[nH]2)nc1` [Example 10-1, 5-[[6-(1H-Pyrazol-5-yl)-3-pyridinyl]oxy]pentanoic Acid], the IC50 at human CYP4F2 (setting [3]) worked out at 19000 nM; against human CYP4A11 (setting [4]), 560 nM.
As to `O=C(CCc1cccc(COc2ccc(-c3ccn[nH]3)nc2)c1)NCC(=O)N1CCCC1` [Example 43-11], the IC50 on human CYP4F2 (setting [1]) amounted to 32 nM; on human CYP4A11 (setting [2]), 280 nM.
With `O=C(O)Cn1cc(-c2cccc(COc3ccc(-c4ccn[nH]4)nc3)c2)ccc1=O` [Example 1-25], the IC50 is 1600 nM against human CYP4F2 (setting [3]) and 120 nM against human CYP4A11 (setting [4]).
`O=C(O)C1CCC(COc2ccc(-c3ccn[nH]3)nc2)CC1` (stereo not shown) [Example 1-49]: the IC50 on human CYP4F2 (setting [3]) worked out at 24000 nM; at human CYP4A11 (setting [4]), 140 nM.
In the case of `O=C(CCc1cccc(COc2ccc(-c3ccn[nH]3)nc2)c1)N1CCCCC1` [Example 42-14], the IC50 at human CYP4F2 (setting [1]) was found to be 30 nM; on human CYP4A11 (setting [2]), 240 nM.
For `O=C(O)CCNC(=O)c1cccc(COc2ccc(-c3ccn[nH]3)nc2)c1` [Example 45-1, 3-[[Oxo-[3-[[6-(1H-pyrazol-5-yl)-3-pyridinyl]oxymethyl]phenyl]methyl]amino]propanoic Acid], the IC50 against human CYP4F2 (setting [1]) amounted to 7600 nM; against human CYP4A11 (setting [2]), 120 nM.
For the compound `O=C(O)C1CCc2cc(COc3ccc(-c4ccn[nH]4)nc3)ccc2O1` (stereo not shown) [Example 1-69], the half-inhibitory concentration (IC50) worked out at 3000 nM at human CYP4F2 (setting [3]) and 75 nM at human CYP4A11 (setting [4]).
As to `O=C(O)C1(C(=O)NCCCCCCOc2ccc(-c3ccn[nH]3)nc2)CCCC1` [Example 3-9], the 50% inhibitory concentration (IC50) at human CYP4F2 (setting [3]) is 430 nM; against human CYP4A11 (setting [4]), 240 nM.
For `Oc1cc(CCCCOc2ccc(-c3ccn[nH]3)nc2)on1` [Example 64-1, 5-[4-[[6-(1H-Pyrazol-5-yl)-3-pyridinyl]oxy]butyl]-3-isoxazole], the IC50 on human CYP4F2 (setting [3]) turned out to be 780 nM; against human CYP4A11 (setting [4]) it was 41 nM.
Turning to `O=C(NCC1(C(=O)O)CCOCC1)c1cccc(COc2ccc(-c3ccn[nH]3)nc2)c1` [Example 45-6], the IC50 against human CYP4F2 (setting [1]) stood at 4500 nM; on human CYP4A11 (setting [2]) it was 250 nM.
For `CCCNC(=O)CCc1cccc(COc2ccc(-c3ccn[nH]3)nc2)c1` [Example 42-10], the results for the IC50 against human CYP4F2 (setting [3]) and against human CYP4A11 (setting [4]) were 15 nM and 46 nM, respectively.
As to `O=C(O)C1CC1c1ccc(F)c(CCOc2ccc(-c3ccn[nH]3)nc2)c1` (stereo not shown) [Example 74-6], the figures for the 50% inhibitory concentration (IC50) against human CYP4F2 (setting [1]) and on human CYP4A11 (setting [2]) were 16000 nM and 35 nM, respectively.
In the same order, the values of `CC(C)(CCNC(=O)c1cccc(COc2ccc(-c3ccn[nH]3)nc2)n1)C(=O)O` [Example 45-16] are 3400 nM and 120 nM.
In the same order, the values of `O=C(O)C[C@@H](NC(=O)c1cccc(COc2ccc(-c3ccn[nH]3)nc2)c1)c1ccccc1` [Example 45-8] are 1900 nM and 130 nM.
Take `O=C(O)[C@]12CC3C[C@H](C1)[C@H](COc1ccc(-c4ccn[nH]4)nc1)[C@@H](C3)C2` [Example 2-1, trans-4-[[6-(1H-Pyrazol-5-yl)-3-pyridinyl]oxymethyl]-1-adamantanecarboxylic Acid]: the half-inhibitory concentration (IC50) on human CYP4F2 (setting [3]) stood at 24000 nM; on human CYP4A11 (setting [4]) it was 23 nM.
Take `CC(C)(Oc1cc(COc2ccc(-c3ccn[nH]3)nc2)ccn1)C(=O)O` [Example 22-13, 2-Methyl-2-[[4-[[6-(1H-pyrazol-5-yl)-3-pyridinyl]oxymethyl]-2-pyridinyl]oxy]propanoic Acid]: the IC50 against human CYP4F2 (setting [3]) is 11000 nM; on human CYP4A11 (setting [4]), 380 nM.
Turning to `O=C(NCc1ccccc1C(=O)O)c1cccc(COc2ccc(-c3ccn[nH]3)nc2)c1` [Example 45-26], the half-inhibitory concentration (IC50) turned out to be 880 nM at human CYP4F2 (setting [1]) and 31 nM against human CYP4A11 (setting [2]).
Consider `O=C(NCCO)c1cccc(COc2ccc(-c3ccn[nH]3)nc2)c1` [Example 42-3], for which the IC50 at human CYP4F2 (setting [3]) is 210 nM; on human CYP4A11 (setting [4]), 350 nM.
Take `O=C(O)C1(CCCCCCCCOc2ccc(-c3ccn[nH]3)nc2)CCOC1` (stereo not shown) [Example 72-4]: the half-inhibitory concentration (IC50) at human CYP4F2 (setting [1]) was 14 nM; at human CYP4A11 (setting [2]), 150 nM.
In the case of `O=C(O)C1CC(c2ccc(CCOc3ccc(-c4ccn[nH]4)nc3)cc2)C1` (stereo not shown) [Example 71-20], the IC50 on human CYP4F2 (setting [1]) was 190 nM; at human CYP4A11 (setting [2]), 500 nM.
`CC(C(=O)O)c1cccc(COc2ccc(-c3ccn[nH]3)nc2)c1` (stereo not shown) [Example 24-1, Sodium 2-[3-[[6-(1H-pyrazol-5-yl)-3-pyridinyl]oxymethyl]phenyl]propanoate]: the IC50 came out at 13000 nM against human CYP4F2 (setting [3]) and 16 nM against human CYP4A11 (setting [4]).
As to `CCS(=O)(=O)NCC(=O)N1CCC[C@@H](COc2ccc(-c3ccn[nH]3)nc2)C1` [Example 41-5], the IC50 is 550 nM at human CYP4F2 (setting [3]) and 1100 nM against human CYP4A11 (setting [4]).
Take `O=C(O)C1CC(c2cccc(CCOc3ccc(-c4ccn[nH]4)nc3)c2)C1` (stereo not shown) [Example 71-19]: the IC50 against human CYP4F2 (setting [1]) came out at 540 nM; at human CYP4A11 (setting [2]), 53 nM.
For `OC(c1ccc(COc2ccc(-c3ccn[nH]3)nc2)cc1)C(F)(F)F` (stereo not shown) [Example 59-3], the IC50 against human CYP4F2 (setting [3]) was found to be 41 nM; against human CYP4A11 (setting [4]) it was 1500 nM.
